Data: patent US6808884B2, “Methods and compositions for detecting polynucleotide duplex damage and errors” (California Institute of Technology, priority 2000, dated 2004)

Experiments:
[1] = tested on: DNA duplexes (SEQ ID NO:1 / SEQ ID NO:2) having base-pair mismatches; assay: Photocleavage of 17mer DNA duplexes with varied X-Y base pair, 365 nm irradiation, PAGE analysis; format: biochemical; conditions: duplex 10 μM, complex 1 μM, pH 7.0, 13 min at 365 nm
Experimental: A set of DNA duplexes was prepared having the following sequence: 3′-[…]-5′(SEQ ID NO:1)
5′-[…]-3′(SEQ ID NO:2),
where X and Y were varied to provide A-T, G-C, and the following mismatches: C-C, C-A, T-T, A-A, T-C, T-G, G-A, and G-G. All oligonucleotides were prepared using standard phosphoramidite chemistry, and were purified by reverse phase HPLC. The oligonucleotides were 5′ end-labeled with γ-^32P ATP (Dupont-NEN) and T4 polynucleotide kinase (New England Biolabs).
Duplexes (10 μM) were incubated with Δ or Λ [Rh(bpy)2 (chrysi)]^3+(1 μM in 50 mM Tris, 20 mM NaOAc, 18 mM NaCl, pH 7.0) for 11 minutes, then irradiated for 13 min at 365 nm using an Oriel HgXe arc lamp. The products were analyzed by PAGE (20%, denaturing), imaged using a Molecular Dynamics Phosphorimager. […] Here, cleavage occurred to the 3′ side of the mismatch site. […] Unlike the other recognized mismatches, the cleavage 3′ to C-A results in two products having different gel mobility, possibly the result of chemically different polymer termini. The cleavage of A-A was also distinctive.

[2] = tested on: DNA duplexes with mismatch-sequence context combinations; assay: DNA photocleavage with bases 5′ and 3′ of the mismatch site systematically changed; format: biochemical; conditions: flanking bases 5′ and 3′ of the mismatch systematically changed

Δ-[Rh(bpy)2 (chrysi)]Cl3 [Δ-[Rh(bpy)2 (chrysi)]^3+]
photocleavage at A-A mismatch, at the A-A site itself [1]: small amount of cleavage
photocleavage at A-A mismatch, base 3′ to the site [1]: strong cleavage
photocleavage at C-A mismatch ([1]; at the mismatched C and the neighbouring base 3′): Strong cutting
photocleavage intensity at C-C mismatch ([1]; cleavage 3′ of the mismatch site): strongest cleavage intensity
photocleavage intensity at T-C mismatch ([1]; compared with C-C): less intense cleavage
photocleavage intensity at T-T mismatch ([1]; compared with C-C): less intense cleavage
mismatch-sequence context combinations at which photocleavage was observed (count) [2]: 83 of 104
mismatch-sequence context combinations at which photocleavage was observed (share) [2]: 80%

Λ[Rh(bpy)2 (chrysi)]Cl3 [Λ enantiomer]
mismatch pairs cleaved among C-C, C-A, T-T, A-A, T-C, T-G, G-A, G-G [1]: A-A mismatch is the only pair cleaved
photocleavage at A-A mismatch, relative to the other enantiomer [1]: weaker cleavage than the Δ enantiomer
